Data published in patent US20070293512A1, “Condensed Pyrimidine Deriviative and Xanthine Oxidase Inhibitor” (priority 2004, published 2007).

Assays:
[1] = biological target: T1, Cow milk Xanthine Oxidase (Bos taurus, UniProt P80457); experiment: Xanthine oxidase inhibition, in vitro (oxidation of xanthine, absorbance at 290 nm); format: biochemical; conditions: xanthine 250 μM, 50 mM phosphate buffer pH 7.5, 30° C., 10 minutes
T1 construct: Cow milk Xanthine Oxidase (Roche); purchased Roche; host or cells: cow milk (natural source)
Experimental: The xanthine oxidase inhibiting action (in vitro test) of the compound of the invention was confirmed by measuring inhibition of oxidation of xanthine by xanthine oxidase, as described in Example 50. As is clear from Tables 11 and 12, the compounds of the invention show excellent xanthine oxidase inhibiting action.
Pharmacological Experiment 1 (In Vitro Measuring Method)
1. Preparation of Test Sample
The test compound was dissolved in dimethylsulfoxide and diluted with 50 mM phosphate buffer (pH 7.5), to give a solution of a predetermined concentration.
125 μL of each of the solutions of the test compound having different concentrations was added to 1 mL of a solution of Xanthine (SIGMA, 250 μM) in the 50 mM phosphor buffer (pH 7.5). The mixture was then pre-incubated at 30° C. for 5 min. Subsequently, to the pre-incubated mixture was added 125 μL of Cow milk Xanthine Oxidase (Roche) diluted with the 50 mM phosphate buffer (pH 7.5) to 70 mU/mL, and the mixture was subjected to reaction at 30° C. for 10 minutes. Then, 1N hydrochloric acid, (200 μL) was added to the reaction mixture to terminate the reaction. Subsequently, absorbance at OD 290 nm was measured by means of a spectrophotometer (Shimadzu UV-160A)., to obtain a inhibition ratio. The measured inhibition ration was used to obtain […]
The inhibition ratio was calculated according to the following formula: Inhibition ratio (%)=[1−(B−C)/(A−C)]×100 • A: absorbance of control • B: absorbance measured on a sample containing test compound • C: absorbance of blank (Test Results)

T1 sequence (P80457 whole entry): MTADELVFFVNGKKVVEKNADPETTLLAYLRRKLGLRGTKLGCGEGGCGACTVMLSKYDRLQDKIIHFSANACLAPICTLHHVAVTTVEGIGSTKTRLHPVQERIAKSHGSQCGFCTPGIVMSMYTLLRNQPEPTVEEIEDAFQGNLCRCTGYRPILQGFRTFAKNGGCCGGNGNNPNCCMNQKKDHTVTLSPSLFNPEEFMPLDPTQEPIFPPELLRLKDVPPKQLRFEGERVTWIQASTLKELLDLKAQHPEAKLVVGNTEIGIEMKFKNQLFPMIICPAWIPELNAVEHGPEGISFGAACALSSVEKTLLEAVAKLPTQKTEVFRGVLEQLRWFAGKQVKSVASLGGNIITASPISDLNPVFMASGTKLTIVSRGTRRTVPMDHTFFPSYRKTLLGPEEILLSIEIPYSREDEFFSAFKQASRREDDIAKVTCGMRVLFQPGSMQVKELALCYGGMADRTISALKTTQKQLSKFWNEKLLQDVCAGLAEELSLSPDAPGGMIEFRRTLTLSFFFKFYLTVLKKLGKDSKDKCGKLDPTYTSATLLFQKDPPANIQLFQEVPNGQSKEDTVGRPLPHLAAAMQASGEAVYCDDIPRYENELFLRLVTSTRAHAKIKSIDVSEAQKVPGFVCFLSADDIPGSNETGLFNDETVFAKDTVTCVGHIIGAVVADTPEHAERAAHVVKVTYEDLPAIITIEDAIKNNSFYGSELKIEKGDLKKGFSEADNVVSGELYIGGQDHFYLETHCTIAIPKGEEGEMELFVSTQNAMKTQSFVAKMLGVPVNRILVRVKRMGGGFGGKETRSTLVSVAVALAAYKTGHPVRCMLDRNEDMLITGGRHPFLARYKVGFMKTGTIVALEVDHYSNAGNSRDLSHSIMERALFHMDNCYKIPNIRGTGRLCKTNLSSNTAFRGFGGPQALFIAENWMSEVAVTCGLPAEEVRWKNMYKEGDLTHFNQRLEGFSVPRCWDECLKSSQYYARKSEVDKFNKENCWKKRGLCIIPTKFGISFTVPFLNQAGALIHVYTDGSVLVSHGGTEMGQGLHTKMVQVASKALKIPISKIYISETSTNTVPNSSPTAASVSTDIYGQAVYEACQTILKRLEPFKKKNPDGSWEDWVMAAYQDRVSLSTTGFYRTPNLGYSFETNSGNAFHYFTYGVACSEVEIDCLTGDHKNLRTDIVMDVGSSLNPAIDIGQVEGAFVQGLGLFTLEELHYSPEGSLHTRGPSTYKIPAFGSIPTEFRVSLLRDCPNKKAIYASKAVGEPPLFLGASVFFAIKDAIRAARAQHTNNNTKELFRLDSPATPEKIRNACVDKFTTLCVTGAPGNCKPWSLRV

IC50 [1] | melting point | SMILES
10.2 nM | 279 to 281 °C (dec.) | O=[N+]([O-])c1cc(-c2nc3c(O)ncnc3s2)ccc1Oc1cccc(F)c1 [Example 20, 2-[4-(3-Fluorophenoxy)-3-nitrophenyl]-4-hydroxythiazolo[5,4-d]pyrimidine]
9.2 nM | 276 to 280 °C (dec.) | O=[N+]([O-])c1cc(-c2nc3c(O)ncnc3s2)ccc1Oc1cccnc1 [Example 32, 4-Hydroxy-2-[3-nitro-4-(3-pyridyloxy)-phenyl]thiazolo[5,4-d]pyrimidine]
9.3 nM | 282 to 284 °C (dec.) | O=[N+]([O-])c1cc(-c2nc3c(O)ncnc3s2)ccc1Oc1ccc(F)cc1 [Example 12, 2-[4-(4-Fluorophenoxy)-3-nitrophenyl]-4-hydroxythiazolo[5,4-d]pyrimidine]
